Source: patent publication US20140271667A1, “Methods and Compositions for Neoadjuvant Therapy” (The Wistar Institute of Anatomy and Biology, priority 2013, published 2014)

How the values were obtained:
PC3 cells [1] = assay: Matrigel-coated transwell cell invasion; format: cell-based, human; settings: Gamitrinib 5 μM, 17-AAG 5 μM, CCCP 12.5 μM, 2-DG 25 mM, 16 h
Procedure: (§1) Various tumor cell types were treated as indicated in each experiment, suspended in 0.1% BSA/DMEM and seeded (1.6−3.2×10^3 cells/mm2, depending on the cell type) in the upper compartment of […] pore diameter BD transwells (BD). NIH3T3 conditioned medium was placed in the lower compartment as a chemoattractant. After 6-18 h incubations at 37° C., the transwell membranes were recovered and cells on the upper side (non-migratory) were wiped off the surface. Cells on the lower side of the membrane were fixed in methanol, rinsed in water and mounted on glass slides with Vectashield medium containing DAPI (Vector Laboratories). Migrated cells on each membrane were counted by fluorescence microscopy in 5 different fields. For cell invasion assays, transwell membranes were coated with Matrigel and processed as described above.

PC3 cells [2] = assay: Transwell cell migration; format: cell-based, human; settings: Gamitrinib 5 μM, 17-AAG 5 μM, CCCP 12.5 μM, 2-DG 25 mM, rapamycin 0.1 μM, 6 h
Procedure: as §1

PC3 cells [3] = assay: Cell proliferation by direct cell counting; format: cell-based, human; settings: vs vehicle, Gamitrinib 5 μM, CCCP 12.5 μM, 2-DG 25 mM
Procedure: (§2) Tumor cells were plated onto 96-well plates at 3.7×10^3/well and treated with vehicle or Gamitrinib (5 μM). After 24 h, cell viability was assessed with a 3 (4,5-dimethyl-thyazoyl-2-yl)2,5 diphenyltetrazolium bromide (MTT) colorimetric assay (24), or, alternatively, by Trypan blue exclusion and light microscopy. Data were background-subtracted relative to vehicle-treated cultures. In some experiments, tumor cell proliferation was assessed by direct cell counting and light microscopy.

PC3 cells [4] = assay: Cell death by Trypan blue exclusion; format: cell-based; settings: vs vehicle, Gamitrinib 5 μM, CCCP 12.5 μM, 2-DG 25 mM
Procedure: as §2

AMPK = assay: Western blotting, AMPK and ACC phosphorylation; format: cell-based, human; settings: PC3; Gamitrinib 5 μM time course, metformin 5 mM 6 h, 17-AAG 5 μM time course
Procedure: (§3) Protein lysates were prepared in RIPA buffer containing 150 mM NaCl, 1.0% Triton X-100, 0.5% sodium deoxycholate, 0.1% SDS, 50 mM Tris, pH 8.0, in the presence of EDTA-free protease inhibitor cocktail (Roche) and phosphatase inhibitor cocktail 2 and 3 (Sigma Aldrich). Equal amounts of protein lysates were separated by SDS gel electrophoresis, transferred to PVDF membranes and incubated with primary antibodies of various specificities. Protein bands were detected by chemiluminescence, as described (21).

Raptor = assay: Western blotting, Raptor phosphorylation; format: cell-based, human; settings: PC3; Gamitrinib 5 μM, metformin 5 mM 6 h, 17-AAG 5 μM
Procedure: as §3

ULK1 = assay: Western blotting, ULK1 phosphorylation and level; format: cell-based, human; settings: for ULK1 phosphorylation on Ser555: Gamitrinib 5 μM (within 1-2 h); for ULK1 phosphorylation on Ser555 / ULK1 phosphorylation on Ser757: metformin 5 mM 6 h, 17-AAG 5 μM; for ULK1 phosphorylation on Ser757: Gamitrinib 5 μM
Procedure: as §3

[5] = system: Focal Adhesion Kinase (FAK); assay: Western blotting, FAK phosphorylation; format: cell-based, human; settings: tumor cells (PC3); Gamitrinib 5 μM, CCCP 12.5 μM, rapamycin 0.1 μM
Procedure: as §3

4EBP1 = assay: Western blotting, 4EBP1 phosphorylation; format: cell-based, human; settings: PC3; rapamycin 0.1 μM
Procedure: as §3

Structure (SMILES) | tumor cell invasion (PC3 cells [1]) | tumor cell migration (PC3 cells [2]) | tumor cell proliferation (PC3 cells [3]) | cell death by Trypan blue exclusion (PC3 cells [4]) | AMPK and ACC phosphorylation (AMPK) | Raptor phosphorylation on Ser792 (Raptor) | ULK1 level after longer exposure (ULK1; 24-h exposure of tumor cells, data not shown) | ULK1 phosphorylation on Ser555 (ULK1; PC3) | ULK1 phosphorylation on Ser757 (ULK1; PC3) | total level of ULK1 (ULK1; PC3, time points of the Western blot experiment) | FAK phosphorylation on Tyr397 and Tyr925 [5] | 4EBP1 phosphorylation (4EBP1)
O=CC[C@@H](O)[C@H](O)[C@H](O)CO [2-DG, 2-deoxy-D-glucose] | suppressed | suppressed tumor cell migration | did not affect cell proliferation | did not affect |  |  |  |  |  |  |  | 
C=CCNC1=C2C[C@@H](C)C[C@H](OC)[C@H](O)[C@@H](C)/C=C(\C)[C@H](OC(N)=O)[C@@H](OC)/C=C\C=C(/C)C(=O)NC(=CC1=O)C2=O [17-AAG, 17-allylamino demethoxygeldanamycin] | did not affect tumor cell migration or invasion | did not affect tumor cell migration or invasion |  |  | did not affect AMPK or ACC phosphorylation | remained unphosphorylated | caused ULK1 degradation | equally reduced | equally reduced | not affected |  | 
N#CC(C#N)=NNc1cccc(Cl)c1 [CCCP, carbonyl cyanide 3-chlorophenylhydrazone] | suppressed | suppressed tumor cell migration | did not affect cell proliferation | did not affect |  |  |  |  |  |  | abolished FAK phosphorylation | 
CN(C)C(=N)N=C(N)N [metformin] |  |  |  |  | activation of AMPK and ACC | phosphorylation of Raptor on Ser792 |  | increased ULK1 phosphorylation on Ser555 | decreased phosphorylation of ULK1 on Ser757 |  |  | 
CO[C@H]1C[C@@H]2CC[C@@H](C)[C@@](O)(O2)C(=O)C(=O)N2CCCC[C@H]2C(=O)O[C@H]([C@H](C)C[C@@H]2CC[C@@H](O)[C@H](OC)C2)CC(=O)[C@H](C)/C=C(\C)[C@@H](O)[C@@H](OC)C(=O)[C@H](C)C[C@H](C)/C=C/C=C/C=C/1C [rapamycin, Rapamycin] |  | no effect |  |  |  |  |  |  |  |  | no effect | suppressed 4EBP1 phosphorylation
